Measurements taken from ChEMBL document CHEMBL1146637, “Structure-activity relationship in the oxazolidinone-quinolone hybrid series: influence of the central spacer on the antibacterial activity and the mode of action” (Bioorg Med Chem Lett, 2003).
In brackets after ≈: the same amount, converted by molar mass.

How the values were obtained:
[1] = system: Escherichia coli; experiment: In vitro antibacterial activity against Escherichia coli AS19 (Eco2), permeable mutant was determined; type: functional
[2] = system: Enterococcus faecalis; experiment: In vitro antibacterial activity against Enterococcus faecalis ATCC 29212 (Efs) was determined; type: functional
[3] = system: Staphylococcus aureus; experiment: In vitro antibacterial activity against oxazolidinone Linezolid resistant Staphylococcus aureus (Sau3LZD) was determined; type: functional
[4] = system: Haemophilus influenzae; experiment: In vitro antibacterial activity against Haemophilus influenzae 11 (Hin) was determined; type: functional
[5] = system: Staphylococcus aureus; experiment: In vitro antibacterial activity against […] Staphylococcus aureus ATCC 29213 (Saul); type: functional
[6] = system: Enterococcus faecium; experiment: In vitro antibacterial activity against vancomycin and ciprofloxacin resistant Enterococcus faecium (Efm CIP) was determined; type: functional
[7] = system: Staphylococcus aureus; experiment: In vitro antibacterial activity against ciprofloxacin and methicillin resistant Staphylococcus aureus (Sau2CIP) was determined; type: functional
[8] = system: Escherichia coli; experiment: In vitro antibacterial activity against Escherichia coli ATCC 25922 (Ecol) was determined; type: functional
[9] = system: Escherichia coli; experiment: In vitro inhibitory activity against protein synthesis was determined by transcription/translation assay with Escherichia coli S30 Extract System.; type: functional
[10] = Inhibitory activity against Escherichia coli Topoisomerase IV in relaxation assay; type: functional
[11] = biological target: DNA gyrase (Escherichia coli, UniProt P0AES4+P0AES6); experiment: Inhibitory activity against DNA gyrase enzyme was determined by supercoiling assay with Escherichia coli DNA gyrase; type: protein-complex assay

CC(=O)NC[C@H]1CN(c2ccc(OCCC3CCN(c4nc5c(cc4F)c(=O)c(C(=O)O)cn5C4CC4)C3)c(F)c2)C(=O)O1 (stereo not given in full)
MIC [1]: ≤ 0.06 µg/mL | MIC [2]: 0.06 µg/mL (≈ 0.0981 µM) | MIC [3]: 0.125 µg/mL (≈ 0.204 µM) | MIC [4]: 0.5 µg/mL (≈ 0.818 µM) | MIC [5]: 0.125 µg/mL (≈ 0.204 µM) | MIC [6]: 0.125 µg/mL (≈ 0.204 µM) | MIC [7]: 0.125 µg/mL (≈ 0.204 µM) | MIC [8]: 2 µg/mL (≈ 3.27 µM)

CC(=O)NC[C@H]1CN(c2ccc(OC[C@@H]3CCN(c4nc5c(cc4F)c(=O)c(C(=O)O)cn5C4CC4)C3)c(F)c2)C(=O)O1
MIC [1]: ≤ 0.06 µg/mL | MIC [2]: 0.125 µg/mL (≈ 0.209 µM) | MIC [3]: ≤ 0.06 µg/mL | MIC [4]: 0.125 µg/mL (≈ 0.209 µM) | MIC [5]: ≤ 0.06 µg/mL | MIC [6]: 0.5 µg/mL (≈ 0.837 µM) | MIC [7]: 0.25 µg/mL (≈ 0.418 µM) | MIC [8]: 1 µg/mL (≈ 1.67 µM)

CC(=O)NC[C@H]1CN(c2ccc(OC3CCN(c4nc5c(cc4F)c(=O)c(C(=O)O)cn5C4CC4)CC3)c(F)c2)C(=O)O1
MIC [1]: 0.25 µg/mL (≈ 0.418 µM) | MIC [2]: 0.125 µg/mL (≈ 0.209 µM) | MIC [3]: 1 µg/mL (≈ 1.67 µM) | IC50 [9]: 5.2 µM | IC50 [10]: 5 µM | MIC [4]: 1 µg/mL (≈ 1.67 µM) | IC50 [11]: 50 µM | MIC [5]: 0.25 µg/mL (≈ 0.418 µM) | MIC [6]: 0.25 µg/mL (≈ 0.418 µM) | MIC [7]: 0.25 µg/mL (≈ 0.418 µM) | MIC [8]: 32 µg/mL (≈ 53.5 µM)

CC(=O)NC[C@H]1CN(c2ccc(OC3CCCN(c4nc5c(cc4F)c(=O)c(C(=O)O)cn5C4CC4)CC3)c(F)c2)C(=O)O1 (stereo not given in full)
MIC [1]: ≤ 0.06 µg/mL | MIC [2]: 0.25 µg/mL (≈ 0.409 µM) | MIC [3]: 0.5 µg/mL (≈ 0.818 µM) | MIC [4]: 1 µg/mL (≈ 1.64 µM) | MIC [5]: 0.5 µg/mL (≈ 0.818 µM) | MIC [6]: 0.5 µg/mL (≈ 0.818 µM) | MIC [7]: 0.25 µg/mL (≈ 0.409 µM) | MIC [8]: 8 µg/mL (≈ 13.1 µM)

CC(=O)NC[C@H]1CN(c2ccc(OCC3CCN(c4nc5c(cc4F)c(=O)c(C(=O)O)cn5C4CC4)C3)c(F)c2)C(=O)O1 (stereo not given in full)
MIC [1]: ≤ 0.06 µg/mL | MIC [2]: 0.125 µg/mL (≈ 0.209 µM) | MIC [3]: ≤ 0.06 µg/mL | IC50 [9]: 1.5 µM | MIC [4]: 0.125 µg/mL (≈ 0.209 µM) | IC50 [11]: 2 µM | MIC [5]: 0.125 µg/mL (≈ 0.209 µM) | MIC [6]: 0.25 µg/mL (≈ 0.418 µM) | MIC [7]: 0.125 µg/mL (≈ 0.209 µM) | MIC [8]: 1 µg/mL (≈ 1.67 µM)

CC(=O)NC[C@H]1CN(c2ccc(OC3CCCN(c4nc5c(cc4F)c(=O)c(C(=O)O)cn5C4CC4)C3)c(F)c2)C(=O)O1 (stereo not given in full)
MIC [1]: 8 µg/mL (≈ 13.4 µM) | MIC [2]: 16 µg/mL (≈ 26.8 µM) | MIC [3]: 16 µg/mL (≈ 26.8 µM) | MIC [4]: 2 µg/mL (≈ 3.35 µM) | MIC [5]: 32 µg/mL (≈ 53.5 µM) | MIC [6]: > 32 µg/mL | MIC [7]: 16 µg/mL (≈ 26.8 µM) | MIC [8]: > 32 µg/mL

CC(=O)NC[C@H]1CN(c2ccc(O[C@@H]3CCN(c4nc5c(cc4F)c(=O)c(C(=O)O)cn5C4CC4)C3)c(F)c2)C(=O)O1
MIC [1]: ≤ 0.06 µg/mL | MIC [2]: 0.5 µg/mL (≈ 0.857 µM) | MIC [3]: 0.5 µg/mL (≈ 0.857 µM) | MIC [4]: 0.5 µg/mL (≈ 0.857 µM) | MIC [5]: 1 µg/mL (≈ 1.71 µM) | MIC [6]: 2 µg/mL (≈ 3.43 µM) | MIC [7]: 0.5 µg/mL (≈ 0.857 µM) | MIC [8]: 8 µg/mL (≈ 13.7 µM)

CC(=O)NC[C@H]1CN(c2ccc(N[C@@H]3CCN(c4nc5c(cc4F)c(=O)c(C(=O)O)cn5C4CC4)C3)c(F)c2)C(=O)O1
MIC [1]: ≤ 0.06 µg/mL | MIC [2]: ≤ 0.06 µg/mL | MIC [3]: ≤ 0.06 µg/mL | MIC [4]: ≤ 0.06 µg/mL | MIC [5]: ≤ 0.06 µg/mL | MIC [6]: 8 µg/mL (≈ 13.7 µM) | MIC [7]: 1 µg/mL (≈ 1.72 µM) | MIC [8]: 0.5 µg/mL (≈ 0.858 µM)

CC(=O)NC[C@H]1CN(c2ccc(OCC3CCN(c4nc5c(cc4F)c(=O)c(C(=O)O)cn5C4CC4)CC3)c(F)c2)C(=O)O1
MIC [1]: 0.125 µg/mL (≈ 0.204 µM) | MIC [2]: ≤ 0.06 µg/mL | MIC [3]: 1 µg/mL (≈ 1.64 µM) | MIC [4]: 0.5 µg/mL (≈ 0.818 µM) | MIC [5]: 0.125 µg/mL (≈ 0.204 µM) | MIC [6]: 0.125 µg/mL (≈ 0.204 µM) | MIC [7]: 0.125 µg/mL (≈ 0.204 µM) | MIC [8]: > 32 µg/mL

CC(=O)NC[C@H]1CN(c2ccc(OC[C@H]3CCN(c4nc5c(cc4F)c(=O)c(C(=O)O)cn5C4CC4)C3)c(F)c2)C(=O)O1
MIC [1]: ≤ 0.06 µg/mL | MIC [2]: 0.06 µg/mL (≈ 0.1 µM) | MIC [3]: 0.125 µg/mL (≈ 0.209 µM) | MIC [4]: 0.25 µg/mL (≈ 0.418 µM) | MIC [5]: 0.125 µg/mL (≈ 0.209 µM) | MIC [6]: 0.125 µg/mL (≈ 0.209 µM) | MIC [7]: 0.125 µg/mL (≈ 0.209 µM) | MIC [8]: 1 µg/mL (≈ 1.67 µM)

CC(=O)NC[C@H]1CN(c2ccc(OC3CN(c4nc5c(cc4F)c(=O)c(C(=O)O)cn5C4CC4)C3)c(F)c2)C(=O)O1
MIC [1]: ≤ 0.06 µg/mL | MIC [2]: 0.5 µg/mL (≈ 0.878 µM) | MIC [3]: ≤ 0.06 µg/mL | MIC [4]: 0.125 µg/mL (≈ 0.219 µM) | MIC [5]: 0.25 µg/mL (≈ 0.439 µM) | MIC [6]: 2 µg/mL (≈ 3.51 µM) | MIC [7]: 0.5 µg/mL (≈ 0.878 µM) | MIC [8]: 1 µg/mL (≈ 1.76 µM)

CC(=O)NC[C@H]1CN(c2ccc(OCCC3CCN(c4nc5c(cc4F)c(=O)c(C(=O)O)cn5C4CC4)CC3)c(F)c2)C(=O)O1
MIC [1]: ≤ 0.06 µg/mL | MIC [2]: 0.125 µg/mL (≈ 0.2 µM) | MIC [3]: 1 µg/mL (≈ 1.6 µM) | MIC [4]: 2 µg/mL (≈ 3.2 µM) | MIC [5]: 0.125 µg/mL (≈ 0.2 µM) | MIC [6]: 0.125 µg/mL (≈ 0.2 µM) | MIC [7]: 0.125 µg/mL (≈ 0.2 µM) | MIC [8]: > 32 µg/mL

CC(=O)NC[C@H]1CN(c2ccc(N3CCN(c4nc5c(cc4F)c(=O)c(C(=O)O)cn5C4CC4)CC3)c(F)c2)C(=O)O1
MIC [1]: 0.06 µg/mL (≈ 0.103 µM) | MIC [2]: 0.125 µg/mL (≈ 0.215 µM) | MIC [3]: 8 µg/mL (≈ 13.7 µM) | IC50 [9]: 2.8 µM | IC50 [10]: 10 µM | MIC [4]: 1 µg/mL (≈ 1.72 µM) | IC50 [11]: 50 µM | MIC [5]: 0.25 µg/mL (≈ 0.429 µM) | MIC [6]: 0.25 µg/mL (≈ 0.429 µM) | MIC [7]: 0.25 µg/mL (≈ 0.429 µM) | MIC [8]: 32 µg/mL (≈ 54.9 µM)

CC(=O)NC[C@H]1CN(c2ccc(O[C@H]3CCN(c4nc5c(cc4F)c(=O)c(C(=O)O)cn5C4CC4)C3)c(F)c2)C(=O)O1
MIC [1]: ≤ 0.06 µg/mL | MIC [2]: 0.125 µg/mL (≈ 0.214 µM) | MIC [3]: ≤ 0.06 µg/mL | IC50 [9]: 6.7 µM | IC50 [10]: 3 µM | MIC [4]: ≤ 0.06 µg/mL | IC50 [11]: 10 µM | MIC [5]: ≤ 0.06 µg/mL | MIC [6]: 1 µg/mL (≈ 1.71 µM) | MIC [7]: 0.25 µg/mL (≈ 0.428 µM) | MIC [8]: 1 µg/mL (≈ 1.71 µM)

O=C(O)c1cn(C2CC2)c2cc(N3CCNCC3)c(F)cc2c1=O [CIPROFLOXACIN]
MIC [1]: ≤ 0.03 µg/mL | MIC [2]: 1 µg/mL (≈ 3.02 µM) | MIC [3]: 0.5 µg/mL (≈ 1.51 µM) | IC50 [9]: > 20 µM | IC50 [10]: 2.5 µM | MIC [4]: ≤ 0.03 µg/mL | MIC [5]: 0.5 µg/mL (≈ 1.51 µM) | MIC [6]: > 32 µg/mL | MIC [7]: > 32 µg/mL | MIC [8]: ≤ 0.03 µg/mL

CC(=O)NC[C@H]1CN(c2ccc(N3CCOCC3)c(F)c2)C(=O)O1 [LINEZOLID]
MIC [1]: 8 µg/mL (≈ 23.7 µM) | MIC [3]: 64 µg/mL (≈ 190 µM) | IC50 [9]: 4.1 µM | MIC [4]: 8 µg/mL (≈ 23.7 µM) | MIC [6]: 2 µg/mL (≈ 5.93 µM) | MIC [7]: 1 µg/mL (≈ 2.96 µM) | MIC [8]: > 64 µg/mL
